# Laboratory results reported in ChEMBL document CHEMBL1159149, “Phenalene metabolites from eichhornia crassipes” (1992).
# Tested on: Porphyridium aerugineum
# Experiment: Compound at a conc of 2 umol was tested for antialgal activity against Porphyridium aerugineum in filter paper-petri dish bioassay
# Type: functional
row,Structure (SMILES),Inhibition zone
1,COc1ccc2c(-c3ccccc3)cc(OC)c3c2c1CCC3OC (stereo not drawn),25 mm
2,COc1cc2ccc(-c3ccccc3)c3c2c(c1OC)CCC3OC (stereo not drawn),25 mm
3,COc1ccc(-c2cc(OC)c3c4c(c(OC)ccc24)CCC3OC)cc1 (stereo not drawn),25 mm
